Measurements as given in patent US20240246905A1 (University of Leicester, priority 2021, published 2024).
Values after ≈ are worked out from the molar mass of the structure shown.

Tests used:
[1] = system: Staphylococcus aureus 15981; assay: Disc diffusion (Kirby-Bauer), zone of inhibition; assay type: cell-based; conditions: Staphylococcus aureus 15981; 500 μg/mL; '/' = no zone; read-out: Zone of inhibition
How it was run: (§1)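 Kirby-Bauer per CLSI 2017: 1 in 200 dilutions of overnight cultures (LB for Gram-negatives, TSB for Gram-positives) spread on Mueller-Hinton agar. Discs loaded with 50 μL antibiotic were added and plates incubated 24 h at 37 °C. Zone of inhibition recorded.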

[2] = system: various Staphylococcus aureus strains; assay: Disc diffusion, Staphylococcus aureus strain study; assay type: cell-based; conditions: Staphylococcus aureus, 500 μg/mL
Description: At this point in the study it was decided to perform a disc diffusion assay study on 50 S. aureus strains. […] Moreover, by employing a range of mutant strains of S. aureus with specific gene-deletions, it was believed that if particular strains were resistant to the lead compounds, it could provide insights on the likely protein target of the lead antibiotics. However, all six of the compounds utilized in this study were able to inhibit growth of all 50 strains of S. aureus assayed at the chosen concentration of 500 μg/mL concentration (Table 5).
E. coli DH5α, P. aeruginosa PA01 and the 53 S. aureus strains were recovered from frozen (−80° C.) glycerol (15% v/v) stocks on Lysogeny agar (LA)—Gram negative and trypticase soy agar (TSA)—plates at 37° C. for 24 hours. Single colonies were placed in either 3 mL Lysogeny broth (LB)—Gram negative or trypticase soy broth (TSB)—Gram positive and incubated at 37° C., 250 rpm for 18 hours.
The antibiotic activity was determined using a Kirby-Bauer method according to Clinical Standard Laboratory Institute (CSLI) Guidelines (2017). Briefly, 180 μL of a 1 in 200 dilution (in LB or TSB) of overnight cultures of selected Gram negative and Gram positive bacteria were applied to an agar plate containing the solid growth medium, Mueller-Hinton agar (MHA). Sterile discs, inoculated with 50 μL of antibiotic, were first added to the agar plate before the plates were incubated for 24 hours at 37° C. Following incubation, the zone of inhibition (if it existed) was recorded.

red blood cells = assay: Hemolysis assay (CO-ADD); assay type: cell-based; conditions: 32 μg/mL highest concentration tested
Description: A problem often encountered by emerging drugs is hemolysis, also known as drug-induced immune hemolytic anemia.

MRSA 252 [3] = assay: MIC, broth micro-dilution; assay type: cell-based, Staphylococcus aureus; conditions: Staphylococcus aureus, read-out: MIC
How it was run: (§2)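 Broth micro-dilution followed CLSI 2017: 1:2 antibiotic dilutions in TSB were inoculated at 5×10^5 CFU/mL. OD was recorded every 12 min over 18 h at 37 °C, and MIC was derived from sigmoidal dose-response fits.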

MSSA 476 [4] = assay: MIC, broth micro-dilution; assay type: cell-based, Staphylococcus aureus; conditions: Staphylococcus aureus, MSSA, read-out: MIC
How it was run: as §2

HEK293 cells = assay: Cytotoxicity assay, resazurin (CO-ADD)
Procedure: The cytotoxicity studies were performed by CO-ADD (The Community for Open Antimicrobial Drug Discovery), funded by the Wellcome trust (UK) and the University of Queensland, Australia.^(28) In this study, the compounds were screened against a human embryonic kidney cell line, HEK293, at a set concentration of 32 μg/mL.
DMEM supplemented with 10% FBS was used as growth media and the cells were incubated together with the compounds for 20 hours at 37° C. in 5% CO2.
Cytotoxicity (or cell viability) was measured by fluorescence, excitation: 560/10 nm, emission: 590/10 nm (F560/590), after addition of 5 μL of 25 μg/mL Resazurin (2.3 μg/mL final concentration) and after incubation for further 3 h at 37° C. in 5% CO2. The fluorescence intensity was measured using a Tecan M1000 Pro monochromator plate reader, using automatic gain calculation CC50 (concentration at 50% cytotoxicity) were calculated by curve fitting the inhibition values vs. log(concentration) using sigmoidal dose-response function, with variable fitting values for bottom, top and slope. The curve fitting was implemented using Pipeline Pilot's dose-response component.

MRSA 252 [5] = assay: Disc diffusion (Kirby-Bauer), zone of inhibition; assay type: cell-based, Staphylococcus aureus; conditions: Staphylococcus aureus, 500 μg/mL, '/' = no zone, read-out: Zone of inhibition
How it was run: as §1

MSSA 476 [6] = assay: Disc diffusion (Kirby-Bauer), zone of inhibition; assay type: cell-based, Staphylococcus aureus; conditions: Staphylococcus aureus, 500 μg/mL, '/' = no zone, read-out: Zone of inhibition
How it was run: as §1

[C-]#[N+]C=Cc1cc(Br)ccc1O [Compound 13]
zone of inhibition at 500 µg/mL [1]: 18 mm | zone of inhibition at 500 µg/mL ([2]; strain ASARM 61): 20 mm | zone of inhibition at 500 µg/mL ([2]; strain ASARM 70): 20 mm | zone of inhibition at 500 µg/mL ([2]; strain ASARM 71): 20 mm | zone of inhibition at 500 µg/mL ([2]; strain ASARM 72): 16 mm | zone of inhibition at 500 µg/mL ([2]; strain ASARM 73): 20 mm | zone of inhibition at 500 µg/mL ([2]; strain ASARM 75): 20 mm | zone of inhibition at 500 µg/mL ([2]; strain ASARM 76): 20 mm | zone of inhibition at 500 µg/mL ([2]; strain ASARM 77): 20 mm | zone of inhibition at 500 µg/mL ([2]; strain ASARM 79): 20 mm | zone of inhibition at 500 µg/mL ([2]; strain ASARM 80): 18 mm | zone of inhibition at 500 µg/mL ([2]; strain EOE 3): 24 mm | zone of inhibition at 500 µg/mL ([2]; strain EOE 23): 22 mm | zone of inhibition at 500 µg/mL ([2]; strain EOE 30): 22 mm | zone of inhibition at 500 µg/mL ([2]; strain EOE 35): 22 mm | zone of inhibition at 500 µg/mL ([2]; strain EOE 41): 20 mm | zone of inhibition at 500 µg/mL ([2]; strain EOE 42): 20 mm | zone of inhibition at 500 µg/mL ([2]; strain EOE 45): 24 mm | zone of inhibition at 500 µg/mL ([2]; strain EOE 52): 22 mm | zone of inhibition at 500 µg/mL ([2]; strain EOE 54): 22 mm | zone of inhibition at 500 µg/mL ([2]; strain EOE 57): 25 mm | zone of inhibition at 500 µg/mL ([2]; strain S139_7_7): 24 mm | zone of inhibition at 500 µg/mL ([2]; strain S197_1_1): 26 mm | zone of inhibition at 500 µg/mL ([2]; strain S197_1_8): 20 mm | zone of inhibition at 500 µg/mL ([2]; strain S197_1_9): 20 mm | zone of inhibition at 500 µg/mL ([2]; strain S197_1_10): 20 mm | zone of inhibition at 500 µg/mL ([2]; strain S295_1_1): 22 mm | zone of inhibition at 500 µg/mL ([2]; strain S295_1_2): 20 mm | zone of inhibition at 500 µg/mL ([2]; strain S295_1_3): 20 mm | zone of inhibition at 500 µg/mL ([2]; strain S364_5_11): 20 mm | zone of inhibition at 500 µg/mL ([2]; strain S364_5_12): 25 mm | zone of inhibition at 500 µg/mL ([2]; strain Sa_TPS 3026): 20 mm | zone of inhibition at 500 µg/mL ([2]; strain Sa_TPS 3072): 21 mm | zone of inhibition at 500 µg/mL ([2]; strain Sa_TPS 3092): 20 mm | zone of inhibition at 500 µg/mL ([2]; strain Sa_TPS 3097): 20 mm | zone of inhibition at 500 µg/mL ([2]; strain Sa_TPS 3103): 20 mm | zone of inhibition at 500 µg/mL ([2]; strain Sa_TPS 3104): 22 mm | zone of inhibition at 500 µg/mL ([2]; strain Sa_TPS 3106): 16 mm | zone of inhibition at 500 µg/mL ([2]; strain Sa_TPS 3118): 22 mm | zone of inhibition at 500 µg/mL ([2]; strain Sa_TPS 3133): 20 mm | zone of inhibition at 500 µg/mL ([2]; strain Sa_TPS 3134): 18 mm | zone of inhibition at 500 µg/mL ([2]; strain USFL 008): 18 mm | zone of inhibition at 500 µg/mL ([2]; strain USFL 009): 22 mm | zone of inhibition at 500 µg/mL ([2]; strain USFL 012): 22 mm | zone of inhibition at 500 µg/mL ([2]; strain USFL 016): 20 mm | zone of inhibition at 500 µg/mL ([2]; strain USFL 018): 20 mm | zone of inhibition at 500 µg/mL ([2]; strain USFL 020): 20 mm | zone of inhibition at 500 µg/mL ([2]; strain USFL 021): 22 mm | zone of inhibition at 500 µg/mL ([2]; strain USFL 028): 22 mm | zone of inhibition at 500 µg/mL ([2]; strain USFL 035): 22 mm | zone of inhibition at 500 µg/mL ([2]; strain USFL 054): 22 mm | Hemolytic activity (HC10) (red blood cells): >32 µg/mL | MIC (MRSA 252 [3]): 35 µg/mL (≈ 156 µM) | MIC (MSSA 476 [4]): 145 µg/mL (≈ 647 µM) | Concentration toxic to HEK 293 cells (HEK293 cells; HEK 293): >32000 ng/mL | toxicity towards the HEK293 cell line (in words) (HEK293 cells; set concentration of 32 μg/mL): no toxicity | zone of inhibition at 500 µg/mL (MRSA 252 [5]): 22 mm | zone of inhibition at 500 µg/mL (MSSA 476 [6]): 22 mm
